The values that follow come from patent publication US12552770B2, “Compounds for treating respiratory disease” (TMEM16A Limited, priority 2020, dated 2026).

This assay addresses T1, human TMEM16A (TMEM16Aabc variant) (Homo sapiens, UniProt Q5XXA6, DEL476-501).
T1 sequence (Q5XXA6 with tags, fused parts or gaps isoform Q5XXA6-5 DEL539-564): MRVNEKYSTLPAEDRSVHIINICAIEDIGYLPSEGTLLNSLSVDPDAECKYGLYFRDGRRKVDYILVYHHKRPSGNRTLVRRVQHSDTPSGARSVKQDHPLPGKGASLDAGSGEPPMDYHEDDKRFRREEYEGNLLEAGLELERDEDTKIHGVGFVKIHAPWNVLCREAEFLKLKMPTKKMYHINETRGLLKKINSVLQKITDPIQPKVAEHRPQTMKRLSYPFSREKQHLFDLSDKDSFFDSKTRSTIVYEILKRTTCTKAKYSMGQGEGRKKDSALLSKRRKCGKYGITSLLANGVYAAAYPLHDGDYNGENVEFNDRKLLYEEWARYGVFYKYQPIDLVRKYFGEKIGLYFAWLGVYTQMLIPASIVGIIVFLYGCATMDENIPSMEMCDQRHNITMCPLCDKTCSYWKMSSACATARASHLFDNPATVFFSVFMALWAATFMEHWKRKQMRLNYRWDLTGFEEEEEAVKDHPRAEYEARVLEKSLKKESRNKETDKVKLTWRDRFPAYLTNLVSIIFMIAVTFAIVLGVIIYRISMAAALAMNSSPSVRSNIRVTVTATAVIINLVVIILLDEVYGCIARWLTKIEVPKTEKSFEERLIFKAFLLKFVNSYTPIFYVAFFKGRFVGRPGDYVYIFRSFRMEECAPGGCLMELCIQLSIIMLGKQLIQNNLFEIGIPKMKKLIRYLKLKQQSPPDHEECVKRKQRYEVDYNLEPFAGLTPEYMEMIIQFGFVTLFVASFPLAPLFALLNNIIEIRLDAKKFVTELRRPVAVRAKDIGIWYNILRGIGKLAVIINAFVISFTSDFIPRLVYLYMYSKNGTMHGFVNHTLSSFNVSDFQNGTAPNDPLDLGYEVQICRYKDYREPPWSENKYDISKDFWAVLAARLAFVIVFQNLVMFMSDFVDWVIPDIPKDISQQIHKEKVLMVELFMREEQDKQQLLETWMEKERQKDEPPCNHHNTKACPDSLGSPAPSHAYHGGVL
Put plainly: Automated whole-cell patch clamp (Qpatch) TMEM16A potentiator assay in recombinant cells. Type of assay: cell-based. The following applies: FRT cells stably expressing human TMEM16A, intracellular calcium at EC20; for % Potentiation @ 3.33 μM Avg: 3.33 μM solution of test compound, percentage increase of baseline TMEM16A current, peak current at +70 mV; for EC50: calculated from cumulative concentration response curve, whole-cell patch clamp. The protocol: Automated Whole-Cell Patch Clamp Assay to Detect TMEM16A Activity in Recombinant Cells
Cell Culture and Preparation
Fisher rat thyroid (FRT) cells stably expressing human TMEM16A (TMEM16Aabc variant; Dr Luis Galietta, Insituto Giannina, Italy) were cultured in T-75 flasks in Hams F-12 media with Coon's modification (Sigma) supplemented with 10% (v/v) foetal bovine serum, penicillin-streptomycin (10,000 U/mL/10000 μg/mL), G-418 (750 μg/mL), L-glutamine (2 mM) and sodium bicarbonate solution (7.5% v/v). At ˜90% confluence cells were harvested for experiments by detachment with a 2:1 (v/v) mixture of Detachin (BMS Biotechnology) and 0.25% (w/v) trypsin-EDTA. Cells were diluted to a density of 3.5-4.5×10^6 cells/mL with media consisting of CHO-S-SFM II (Sigma), 25 mM HEPES (Sigma) and Soy bean trypsin inhibitor (Sigma).
Whole-Cell Patch Clamp Recording
FRT-TMEM16A cells were whole-cell patch clamped using an automated planar patch clamp system (Qpatch, Sophion). Briefly, once high resistance (GOhm) seals were established between the cells and the planar recording array the patch was ruptured using suction pulses to establish the whole-cell recording configuration of the patch clamp technique. The assay employed the following solutions (all reagents Sigma):
Intracellular solution (mM): N-methyl-D-glucamine 130, CaCl2 18.2, MgCl2 1, HEPES 10, EGTA 10, BAPTA 20, Mg-ATP 2, pH 7.25, 325 mOsm with sucrose.
Extracellular solution (mM): N-methyl-D-glucamine 130, CaCl2 2, MgCl2 1, HEPES 10, pH 7.3, 320 mOsm with sucrose.
The intracellular solution buffers intracellular calcium at levels required to give ˜20% activation of the maximal TMEM16A mediated current (EC20 for calcium ions). Cells were voltage clamped at a holding potential of −70 mV and a combined voltage step (to +70 mV)/ramp (−90 my to +90 mV) was applied at 0.05 Hz. After a period of current stabilisation test compounds, solubilised in 100% (v/v) DMSO and subsequently diluted into extracellular solution, were applied to generate a cumulative concentration response curve. Each concentration of test compound was incubated for 5 minutes before addition of the next concentration. After the final concentration was tested a supramaximal concentration of either a known active positive modulator or the TMEM16A inhibitor, CaCCinhA01 (Del La Fuente et al, 2008) was added to define the upper and lower limits of the assay.
Compound activity was quantified by measuring the increase in current upon compound addition and expressing this as a percentage increase of baseline TMEM16A current level. Percentage increases in current were determined for each concentration and the data plotted as a function of concentration using either the Qpatch software or Graphpad Prism v6.05 providing the concentration which gave 50% of its maximal effect (EC50) and maximum efficacy (percentage of baseline increase).
In FIG. 1, IBL equals baseline current, I[#1] equals the peak current during test compound concentration 1 incubation period and so on.
Peak TMEM16A current at +70 mV was plotted as a function of time over the assay period. Baseline current (IBL) was measured after a period of stabilisation. The increase in current for each compound addition was determined by taking the peak current during the incubation period and subtracting the current from the previous recording period and then expressing this as a percentage of the baseline current. For test compound concentration 1 in FIG. 1 this is:
For each additional concentration tested the increase in current was determined by subtracting the current from the previous incubation period and normalising the baseline value—for test concentration 2 in FIG. 1 this is:
The values for each test concentration were plotted as a cumulative function of concentration e.g. for test concentration two this would be the sum of the peak changes measured during concentration one plus concentration two.

For the compound `O=C(CC12CC3CC(CC(C3)C1)C2)Nc1ccc2[nH]c(CC3CCCCC3)nc2c1` [Example 1, 2-(1-Adamantyl)-N-[2-(cyclohexylmethyl)-1H-benzimidazol-5-yl]acetamide], the “% Potentiation @ 3.33 μM Avg” value came out at 157.3% and the EC50 (in general, the concentration that produces a half-maximal response) is 338 nM.

For `O=C(CC12CC3CC(CC(C3)C1)C2)Nc1ccc2[nH]c(CC3CCCCO3)nc2c1` (centres unmarked) [Example 1.1, 2-(1-Adamantyl)-N-[2-(tetrahydropyran-2-ylmethyl)-1H-benzimidazol-5-yl]acetamide], the “% Potentiation @ 3.33 μM Avg” value is 100.5% and the EC50 is 1100 nM.

Take `O=C(CC1C2CC3CC(C2)CC1C3)Nc1ccc2[nH]c(Cc3ccccc3)nc2c1` (centres unmarked) [Example 2, 2-(2-Adamantyl)-N-(2-benzyl-1H-benzimidazol-5-yl)acetamide]: the “% Potentiation @ 3.33 μM Avg” value was 183.6% and the EC50 is 268 nM.

Regarding `O=C(CC1C2CC3CC(C2)CC1C3)Nc1ccc2[nH]c(CCc3ccccc3)nc2c1` (centres unmarked) [Example 2.1, 2-(2-Adamantyl)-N-[2-(2-phenylethyl)-1H-benzimidazol-5-yl]acetamide], the “% Potentiation @ 3.33 μM Avg” value is 149.1% and the EC50 was 808 nM.

Turning to `COC(c1ccccc1)c1nc2cc(NC(=O)CC3C4CC5CC(C4)CC3C5)ccc2[nH]1` (centres unmarked) [Example 2.2, 2-(2-Adamantyl)-N-[2-[methoxy(phenyl)methyl]-1H-benzimidazol-5-yl]acetamide], the “% Potentiation @ 3.33 μM Avg” value came to 194.2% and the EC50 is 651 nM.

For `COc1ccccc1Cc1nc2cc(NC(=O)CC3C4CC5CC(C4)CC3C5)ccc2[nH]1` (centres unmarked) [Example 2.3, 2-(2-Adamantyl)-N-[2-[(2-methoxyphenyl)methyl]-1H-benzimidazol-5-yl]acetamide], the “% Potentiation @ 3.33 μM Avg” value is 211.2% and the EC50 is 263 nM.

In the case of `CN[C@H](c1ccccc1)c1nc2cc(NC(=O)CC3C4CC5CC(C4)CC3C5)ccc2[nH]1` (stereo partly drawn) [Example 3, 2-(2-Adamantyl)-N-[2-[(R)-methylamino(phenyl)methyl]-1H-benzimidazol-5-yl]acetamide], the “% Potentiation @ 3.33 μM Avg” value worked out at 108.2% and the EC50 is 1640 nM.

Turning to `O=C(CC12CC3CC(CC(C3)C1)C2)Nc1ccc2[nH]c(Cc3cccnc3Cl)nc2c1` [Example 4, 2-(1-Adamantyl)-N-[2-[(2-chloro-3-pyridyl)methyl]-1H-benzimidazol-5-yl]acetamide], the “% Potentiation @ 3.33 μM Avg” value was determined as 187.3% and the EC50 was 732 nM.

As to `O=C(CC1C2CC3CC(C2)CC1C3)Nc1ccc2[nH]c(Cc3ccccc3O)nc2c1` (centres unmarked) [Example 5, 2-(2-Adamantyl)-N-[2-[(2-hydroxyphenyl)methyl]-1H-benzimidazol-5-yl]acetamide], the “% Potentiation @ 3.33 μM Avg” value is listed as 156.9% and the EC50 was 79 nM.

As for `O=C(CC1C2CC3CC(C2)CC1C3)Nc1ccc2[nH]c(Cc3ccc(O)cc3)nc2c1` (centres unmarked) [Example 5.1, 2-(2-Adamantyl)-N-[2-[(4-hydroxyphenyl)methyl]-1H-benzimidazol-5-yl]acetamide], the “% Potentiation @ 3.33 μM Avg” value was determined as 165.9% and the EC50 was 596 nM.

Turning to `O=C(CC1C2CC3CC(C2)CC1C3)Nc1ccc2[nH]c(Cc3cc(Cl)ccc3O)nc2c1` (centres unmarked) [Example 5.2, 2-(2-Adamantyl)-N-[2-[(5-chloro-2-hydroxy-phenyl)methyl]-1H-benzimidazol-5-yl]acetamide], the “% Potentiation @ 3.33 μM Avg” value is 204.2% and the EC50 was 254 nM.

For `O=C(CC12CC3CC(CC(C3)C1)C2)Nc1ccc2[nH]c(CNC(=O)OCC(F)(F)F)nc2c1` [Example 6, 2,2,2-Trifluoroethyl N-[[5-[[2-(1-adamantyl)acetyl]amino]-1H-benzimidazol-2-yl]methyl]carbamate], the “% Potentiation @ 3.33 μM Avg” value is given as 246.3% and the EC50 was 1250 nM.

As to `Cc1noc(C)c1-c1cccc(Cc2nc3ccc(NC(=O)CC45CC6CC(CC(C6)C4)C5)cc3[nH]2)c1` [Example 7, 2-(1-Adamantyl)-N-[2-[[3-(3,5-dimethylisoxazol-4-yl)phenyl]methyl]-3H-benzimidazol-5-yl]acetamide], the “% Potentiation @ 3.33 μM Avg” value was found to be 136.5% and the half-maximal effective concentration (EC50) was 1580 nM.

For `CC(C)(C)OC(=O)NCc1nc2cc(NC(=O)CC3C4CC5CC(C4)CC3C5)ccc2[nH]1` (centres unmarked) [Example 8, tert-Butyl N-[[5-[[2-(2-adamantyl)acetyl]amino]-1H-benzimidazol-2-yl]methyl]carbamate], the “% Potentiation @ 3.33 μM Avg” value amounted to 129.2% and the half-maximal effective concentration (EC50) is 282 nM.

Consider `O=C(CC1C2CC3CC(C2)CC1C3)Nc1ccc2[nH]c(OC3CCOC3)nc2c1` (centres unmarked) [Example 9, 2-(2-Adamantyl)-N-(2-tetrahydrofuran-3-yloxy-1H-benzimidazol-5-yl)acetamide], for which the “% Potentiation @ 3.33 μM Avg” value is recorded as 87.4% and the EC50 was 841 nM.

For `O=C(NCC1CCCCCC1)c1ccc2oc(Cc3ccccc3O)nc2c1` [Example 10, N-(Cycloheptylmethyl)-2-[(2-hydroxyphenyl)methyl]-1,3-benzoxazole-5-carboxamide], the “% Potentiation @ 3.33 μM Avg” value is listed as 67.7% and the EC50 was 122 nM.

For `Nc1c2ccc(NC(=O)CC34CC5CC(CC(C5)C3)C4)cc2nn1Cc1ccccc1O` [Example 11, 2-(1-Adamantyl)-N-[3-amino-2-[(2-hydroxyphenyl)methyl]indazol-6-yl]acetamide], the “% Potentiation @ 3.33 μM Avg” value came to 122.7% and the concentration for a half-maximal effect (EC50) was 98 nM.

`CC(C)c1nc2cc(NC(=O)CC3CCCCC3)ccc2o1` [Example 12, 2-Cyclohexyl-N-(2-isopropyl-1,3-benzoxazol-5-yl)acetamide]: the “% Potentiation @ 3.33 μM Avg” value came to 44.6% and the concentration giving a half-maximal response (EC50) was 3340 nM.

As for `O=C(NCC1CCCCCC1)c1ccc2cn(Cc3ccccc3O)nc2c1` [Example 13, N-(Cycloheptylmethyl)-2-[(2-hydroxyphenyl)methyl]indazole-6-carboxamide], the “% Potentiation @ 3.33 μM Avg” value was 96.6% and the EC50 was 198 nM.
